Source: patent publication US4689345A, “Oxygenated alkyl substituted bicyclo alkanes” (CBD Corporation, priority 1986, dated 1987)
Values joined by “and” are separate entries in the source; they are usually repeats but may differ in a detail not shown here. Equal values may be shown once.

Key:
progesterone receptor [1] = test: Progesterone receptor inhibition, Actinomyces; type: binding
estrogen receptor [2] = test: Estrogen receptor inhibition, Saccharomyces cerevisiae strains; details: DHT:anti-androgen 1:1,000
progesterone receptor [3] = test: Progesterone receptor inhibition, Torulopsis; type: binding
progesterone receptor [4] = test: Fungal progesterone receptor inhibition, Fusarium; type: binding
estrogen receptor [5] = test: Estrogen receptor inhibition, Actinomyces; type: binding
estrogen receptor [6] = test: Estrogen receptor inhibition, Pseudomonas testosteroni; type: binding
estrogen receptor [7] = test: Estrogen receptor inhibition, Candida; type: binding
[8] = tested on: fungal androgen receptors; test: Fungal androgen receptor inhibition, Fusarium; type: binding
Source text: In the second series of experiments using the compound of the invention 2-(5-hydroxyhept-1-yl) bicyclo[3.3.0]octan-7-one {hexahydro-4-(5-hydroxyheptyl)-2-(1H)-pentalenone} upon zeralenone and zearalanol production, zearalenone and zearalanol were chemically obtained from Sigma Chemical Co., St. Louis, Mo.

progesterone receptor [9] = test: Progesterone receptor inhibition, Blastomyces; type: binding
[10] = tested on: androgen binding sites in a melanoma; test: Blocking of androgen binding sites in a melanoma; details: 1:1000 of dihydrotestosterone to the tested compound
androgen receptor = biological target: T1, androgen receptor (Homo sapiens, UniProt P10275); test: Androgen receptor inhibition in skin/tissue fibroblast lines; type: cell-based; set-up: The bald skin was used for androgen receptors using the second technique described above; from tissue; host or cells: bald scalp skin of hair transplantation volunteers; details: DHT:compound 1:1,000
T1 sequence (P10275 1-920): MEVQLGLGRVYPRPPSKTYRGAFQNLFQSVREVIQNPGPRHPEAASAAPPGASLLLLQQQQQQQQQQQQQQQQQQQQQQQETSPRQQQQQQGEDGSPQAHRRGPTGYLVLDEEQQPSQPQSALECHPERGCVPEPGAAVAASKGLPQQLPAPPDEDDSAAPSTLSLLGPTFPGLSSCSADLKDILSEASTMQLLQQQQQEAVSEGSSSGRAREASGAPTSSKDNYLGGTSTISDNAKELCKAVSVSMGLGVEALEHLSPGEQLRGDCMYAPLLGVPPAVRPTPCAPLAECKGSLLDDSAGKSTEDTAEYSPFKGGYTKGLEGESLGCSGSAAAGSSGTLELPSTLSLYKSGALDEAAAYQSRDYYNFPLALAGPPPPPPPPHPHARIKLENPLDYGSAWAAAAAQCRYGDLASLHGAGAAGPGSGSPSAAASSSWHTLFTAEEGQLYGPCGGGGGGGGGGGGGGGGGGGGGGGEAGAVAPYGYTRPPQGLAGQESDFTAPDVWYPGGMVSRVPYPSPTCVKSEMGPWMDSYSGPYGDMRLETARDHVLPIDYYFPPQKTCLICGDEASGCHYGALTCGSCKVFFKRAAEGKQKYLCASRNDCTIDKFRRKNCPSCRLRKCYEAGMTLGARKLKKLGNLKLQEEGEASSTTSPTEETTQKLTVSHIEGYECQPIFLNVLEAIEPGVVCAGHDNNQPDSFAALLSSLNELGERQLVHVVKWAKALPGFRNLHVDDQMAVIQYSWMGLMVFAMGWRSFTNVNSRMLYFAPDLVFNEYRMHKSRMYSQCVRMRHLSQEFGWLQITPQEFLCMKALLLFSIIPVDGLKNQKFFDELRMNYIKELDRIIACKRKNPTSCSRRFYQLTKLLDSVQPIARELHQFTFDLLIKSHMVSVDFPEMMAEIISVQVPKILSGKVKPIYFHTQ
Method: (§1) Explants of both normal and keloid skin and tissue fibroblast lines were established.
(§2) Hormonal receptor analyses on these tissues were performed by the method of Griffith et al., Journal of Clinical Investigation, Vol. 57, page 1340 (1978).

progesterone receptor [11] = biological target: T2, progesterone receptor (Homo sapiens, UniProt P06401); test: Progesterone receptor inhibition in skin/tissue fibroblast lines; type: cell-based; details: DHT:compound 1:1,000
T2 construct: Skin fibroblast tissue lines from surgical explants were obtained; endogenous in cells; host or cells: skin fibroblast lines from surgical explants (keloid, scalp, forearm)
T2 sequence (P06401 1-933): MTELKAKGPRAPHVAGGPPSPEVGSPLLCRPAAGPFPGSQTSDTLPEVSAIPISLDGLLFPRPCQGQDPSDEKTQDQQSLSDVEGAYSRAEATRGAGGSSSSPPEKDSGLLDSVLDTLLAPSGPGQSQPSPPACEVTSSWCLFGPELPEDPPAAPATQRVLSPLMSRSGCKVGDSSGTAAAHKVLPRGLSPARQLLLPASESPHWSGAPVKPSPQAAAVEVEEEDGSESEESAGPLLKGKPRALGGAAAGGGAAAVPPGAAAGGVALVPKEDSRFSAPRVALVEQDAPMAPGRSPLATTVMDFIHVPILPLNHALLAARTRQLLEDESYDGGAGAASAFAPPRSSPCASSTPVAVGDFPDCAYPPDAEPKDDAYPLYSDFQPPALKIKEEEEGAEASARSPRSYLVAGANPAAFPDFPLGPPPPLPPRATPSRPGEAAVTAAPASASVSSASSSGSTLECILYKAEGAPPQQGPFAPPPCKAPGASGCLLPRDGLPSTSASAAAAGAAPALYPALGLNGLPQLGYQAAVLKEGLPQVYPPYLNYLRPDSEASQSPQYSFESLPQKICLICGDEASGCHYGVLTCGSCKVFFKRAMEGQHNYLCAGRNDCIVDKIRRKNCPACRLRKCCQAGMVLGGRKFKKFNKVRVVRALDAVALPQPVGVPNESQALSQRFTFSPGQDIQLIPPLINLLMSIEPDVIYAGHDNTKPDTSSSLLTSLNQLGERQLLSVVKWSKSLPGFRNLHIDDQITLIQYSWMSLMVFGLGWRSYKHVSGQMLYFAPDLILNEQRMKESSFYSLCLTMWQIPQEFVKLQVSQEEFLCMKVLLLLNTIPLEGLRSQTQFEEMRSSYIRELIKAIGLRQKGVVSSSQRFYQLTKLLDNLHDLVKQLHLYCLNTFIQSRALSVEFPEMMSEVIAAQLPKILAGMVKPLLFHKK
Method: as §1, §2

SMILES: CCC(O)CCCCC1CCC2CC(=O)CC12 (stereo not drawn) [Compound IV]
- % Progesterone Receptor Inhibition (progesterone receptor [1]): 0%
- % Estrogen Receptor Inhibition (estrogen receptor [2]; strain 1): 0%
- % Estrogen Receptor Inhibition (estrogen receptor [2]; strain 2): 0%
- % Estrogen Receptor Inhibition (estrogen receptor [2]; strain 3): 0%
- % Estrogen Receptor Inhibition (estrogen receptor [2]; strain 4): 0%
- % Estrogen Receptor Inhibition (estrogen receptor [2]; strain 5): 0%
- % Estrogen Receptor Inhibition (estrogen receptor [2]; strain 6): 0%
- % Estrogen Receptor Inhibition (estrogen receptor [2]; strain 7): 0%
- % Progesterone Receptor Inhibition (progesterone receptor [3]): 6%
- % Progesterone Receptor Inhibition (progesterone receptor [4]; fungal hormone Zeralanol): 0%
- % Progesterone Receptor Inhibition (progesterone receptor [4]; fungal hormone Zeralenone): 0%
- % Estrogen Receptor Inhibition (estrogen receptor [5]): 0%
- % Estrogen Receptor Inhibition (estrogen receptor [6]; strain 1): 0%
- % Estrogen Receptor Inhibition (estrogen receptor [6]; strain 2): 0%
- % Estrogen Receptor Inhibition (estrogen receptor [6]; strain 3): 0%
- % Estrogen Receptor Inhibition (estrogen receptor [6]; strain 4): 0%
- % Estrogen Receptor Inhibition (estrogen receptor [7]): 0%
- fungal androgen receptors blocked ([8]; DHT:compound 1:1,000): 9-83%
- % Androgen Receptor Inhibition ([8]; fungal hormone Zeralanol): 84%
- % Androgen Receptor Inhibition ([8]; fungal hormone Zeralenone): 79%
- blocking of interaction of fungal hormone and its hormonal receptors ([8]; hormone:anti-androgen 1:1 to 1:1,000): 26-90%
- % Progesterone Receptor Inhibition (progesterone receptor [9]): 3%

SMILES: CCC(CCCCC1CCC2CC(=O)CC12)OC (stereo not drawn) [Compound V, 2-(5-Methoxyhept-1-yl)bicyclo[3.3.0]octan-7-one]
- block of androgen binding sites in a melanoma [10]: 59-80%
- % Androgen Receptor Inhibition (androgen receptor; forearm): 22%
- % Androgen Receptor Inhibition (androgen receptor; keloid): 72% and 41%
- interference with progesterone receptors (progesterone receptor [11]; more than 400 experiments): without significant interference
- % Progesterone Receptor Inhibition (progesterone receptor [11]; forearm): 4%
- % Progesterone Receptor Inhibition (progesterone receptor [11]; keloid): 0%
- % Progesterone Receptor Inhibition (progesterone receptor [11]; keloid, listed as 2-(5-methoxyhept-1-yl)bicyclo[3.3.0]octan-7-one): no measurable
- % Progesterone Receptor Inhibition (progesterone receptor [11]; scalp): 7% and 0% and 3%
